We go through 22 compounds from ChEMBL document CHEMBL4421730, “Synthetic compounds and derivatives as modulators of smoking or nicotine ingestion and lung cancer” (2013).

The source made the active and inactive calls. The rule behind the calls is not given here.

In data set [1] the target is T1, Cytochrome P450 2A6 (Homo sapiens, UniProt P11509).
T1 sequence (P11509 whole entry): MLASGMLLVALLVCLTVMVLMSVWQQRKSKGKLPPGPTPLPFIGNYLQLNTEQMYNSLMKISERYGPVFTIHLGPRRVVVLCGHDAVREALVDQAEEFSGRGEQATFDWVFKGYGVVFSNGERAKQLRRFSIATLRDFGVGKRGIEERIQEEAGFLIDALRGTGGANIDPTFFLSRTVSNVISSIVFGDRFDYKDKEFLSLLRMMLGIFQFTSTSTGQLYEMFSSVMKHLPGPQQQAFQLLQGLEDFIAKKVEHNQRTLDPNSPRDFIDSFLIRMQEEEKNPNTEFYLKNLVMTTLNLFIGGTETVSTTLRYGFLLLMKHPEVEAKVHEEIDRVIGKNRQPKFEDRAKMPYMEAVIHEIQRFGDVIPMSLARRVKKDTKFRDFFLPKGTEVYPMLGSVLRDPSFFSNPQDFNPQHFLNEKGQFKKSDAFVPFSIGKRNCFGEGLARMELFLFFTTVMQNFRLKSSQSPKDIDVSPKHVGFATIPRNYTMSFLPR
The experiment in a line: Binding affinity to synthetic N-terminal truncated CYP2A6 (unknown origin) assessed as occurrence of type-1 binding by spectral interaction analysis.

The target in data set [2] is Acetylcholine-binding protein (Lymnaea stagnalis) (UniProt P58154). Nature of the data set: Binding affinity to Lymnaea stagnalis nicotinic acetylcholine receptor by fluorescence based assay. It is filed as single protein.
The subject of data set [3] is Rattus norvegicus. Nature of the data set: Reduction of nicotine self-administration in nicotine-addicted Wistar rat at 16 mg/kg dosed on day 50 following self-administration of nicotine across 23 hrs period each day for 49 days and measured on day 51 and 52 relative to control. It is filed as ADME, organism-based. The note with it: in vivo.
Data set [4] deals with T2, CYP2A6 (Homo sapiens, UniProt P11509).
T2 sequence (P11509 whole entry): T1 sequence (P11509 whole entry)
The experiment in a line: (§1) Binding affinity to synthetic N-terminal truncated CYP2A6 (unknown origin) assessed as effect on type-1 spectral shift lambda(max) by measuring displacement of coumarin at 100 uM preincubated with […] coumarin by spectral interaction analysis. The note with it: synthetic N-terminal truncated CYP2A6, probe coumarin, […].

The target in data set [5] is T2, CYP2A6. The experiment in a line: (§2) Binding affinity to synthetic N-terminal truncated CYP2A6 (unknown origin) assessed as effect on type-1 spectral shift lambda(min) by measuring displacement of coumarin at 100 uM preincubated with […] coumarin by spectral interaction analysis. The note with it: synthetic N-terminal truncated CYP2A6, probe coumarin, […].
The target of data set [6] is T1, Cytochrome P450 2A6. Described as §1. The note with it: 100 µM.
The target of data set [7] is T1, Cytochrome P450 2A6. The description is as §2. The note with it: 100 µM.
The subject of data set [8] is Rattus norvegicus. Nature of the data set: Reduction of nicotine self-administration in nicotine-addicted Wistar rat at 15 mg/kg dosed on day 50 following self-administration of nicotine across 23 hrs period each day for 49 days and measured on day 51 and 52 relative to control. In kind it is ADME, organism-based. The note with it: in vivo.
Data set [9] relates to Rattus norvegicus. The experiment in a line: Reduction of nicotine self-administration in nicotine-addicted Wistar rat at 15 mg/kg dosed on day 50 following self-administration of nicotine across 23 hrs period each day for 49 days relative to control. In kind it is ADME, organism-based. Also on record: scale not given: the % may be the effect or the level left. The note with it: in vivo.

Data set [10] addresses Acetylcholine-binding protein (Lymnaea stagnalis) (UniProt P58154). Nature of the data set: Displacement of [125I]bungarotoxin from Lymnaea stagnalis nicotinic acetylcholine receptor assessed as residual radioligand binding relative to control. On the technique in general: Loss of bound radioactivity is the signal in a displacement assay; it reports binding, not function.

In data set [11] the target is T1, Cytochrome P450 2A6. The experiment in a line: Inhibition of human CYP2A6 expressed in insect cell membranes assessed as reduction in enzyme-mediated coumarin 7-hydroxylation at 400 uM in presence of glucose-6-phosphate, glucose-6-phosphate dehydrogenase and NADPH-generating system by fluorometry.

Acetylcholine-binding protein (Lymnaea stagnalis), sequence (P58154 whole entry): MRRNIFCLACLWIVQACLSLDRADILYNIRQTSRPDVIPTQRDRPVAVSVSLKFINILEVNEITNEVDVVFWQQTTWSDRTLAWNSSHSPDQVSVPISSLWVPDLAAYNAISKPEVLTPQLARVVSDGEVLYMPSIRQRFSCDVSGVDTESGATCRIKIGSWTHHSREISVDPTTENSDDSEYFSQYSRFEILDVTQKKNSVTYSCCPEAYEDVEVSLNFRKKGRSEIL

`c1ccc(-c2ccsc2)cc1`: the outcome on Cytochrome P450 2A6 [1] was Active.
For the compound `N[C@@H]1C[C@H]1c1ccccc1.N[C@H]1C[C@@H]1c1ccccc1`, the result in data set [2] was Active.
On to `c1cncc(-c2cccs2)c1`, for which the outcome in data set [2] was Active.
`Cc1ccsc1-c1cccnc1`: the result at Cytochrome P450 2A6 [1] was Active.
On to `CCC1CCC(c2cccnc2)O1` (configuration not stated), for which the result in data set [2] was inactive.
Turning to `Cc1cscc1-c1ccccc1`, the result on Cytochrome P450 2A6 [1] was Active.
For `OCC1CCC(c2cccnc2)O1` (configuration not stated), in [2], the result was inactive.
As to `Cl.Cl.NCc1ccc(-c2cccnc2)o1`, in the data set with Rattus norvegicus [3], the Activity entry is reported as “Toxic”.
Turning to `c1cncc(-c2cccnc2)c1`, the result in data set [2] was Active.
Consider `SCc1ccc(-c2cccnc2)o1`, for which the inhibition at 100 µM on CYP2A6 [4] and at CYP2A6 [5] was 100% each time. Further, at Cytochrome P450 2A6 [1], the Activity result is on record as “Not Active”.
Consider `BrCC1CCC(c2cccnc2)O1` (configuration not stated), for which the outcome in data set [2] was Active.
For `CC(=O)SCc1ccc(-c2cccnc2)o1`, the Activity entry on Cytochrome P450 2A6 [6], on Cytochrome P450 2A6 [1] and on Cytochrome P450 2A6 [7] was “Not Active” each time.
As for `Cl.Cl.c1cncc(-c2c[nH]cn2)c1`, the result in data set [2] was inactive. Besides, the Activity result with Rattus norvegicus [8] is given as “Toxic”; in the data set with Rattus norvegicus [9], 40%.
Consider `NC[C@@H]1CC[C@@H](c2cccnc2)O1` (relative stereo), for which the result in data set [2] was Active. In [10], the Activity was found to be 25%.
Regarding `CN(C)CC#Cc1cccnc1`, the Activity entry at Cytochrome P450 2A6 [1] was “Not Active”.
As for `Cc1cscc1-c1cccnc1`, the outcome in [2] was Active.
Turning to `NCC1CCC(c2cccnc2)O1` (mixture of isomers), the result in [2] was Active. Also, the Activity in [10] amounted to 30%.
On to `O=Cc1ccc(-c2cccnc2)o1`, for which the inhibition at 100 µM at CYP2A6 [4] and on CYP2A6 [5] was 100% in each case. For the same compound, the Activity result at Cytochrome P450 2A6 [1] is “Not Active”.
Turning to `Cc1csc(-c2cccnc2)n1`, the outcome at Cytochrome P450 2A6 [1] was Active.
Turning to `Cc1ccsc1-c1ccc(F)nc1`, the result on Cytochrome P450 2A6 [1] was Active.
As to `Cc1cn(-c2cccnc2)cn1`, the outcome in data set [2] was Active.
With `c1cncc(-n2cnnn2)c1`, on Cytochrome P450 2A6 [11], the “inhibition (INH)” value is recorded as “Active”.
